Data reported in paper PMC5526551, “New hydrazonoindolin-2-ones: Synthesis, exploration of the possible anti-proliferative mechanism of action and encapsulation into PLGA microspheres” (PLoS ONE, 2017).
Like-named read-outs stand apart in the source and are kept apart here.

Tests used:
A549 = test: Anti-proliferative activity, cell growth inhibition (CellTiterGlo, 72 h); format: cell-based, human; details: for inhibition at 30 µM: A549, read-out: Cell growth inhibitory activity, A-549; for IC50: read-out: IC50 A-549
Method: (§1) Twenty compounds, i.e. 4a-o and 7a-e, were analyzed for cancer cell growth inhibitory activity. These studies were carried out using cells derived from human lung, colon and breast tumors (A549, HT-29 and ZR-75 cells, respectively). This initial assessment of activity tested each compound in quadruplicate at a single concentration of 30 μM, if solubility permitted.
(§2) A549, HT-29, ZR-75 were obtained from the American Type Culture Collection (ATCC). Cells were harvested from 90-95% confluent 10 cm dishes, and diluted in growth media (RPMI-1640 supplemented with 5% fetal bovine serum). An appropriate concentration of cells were prepared to add 1,250 cells in a volume of 25 µL per well in tissue culture treated Griener 384-well microplates, then incubated overnight at 37°C. Compound 7e was diluted to a concentration of 30 µM in DMSO. Concentrated dosing solutions of twice the final concentration were prepared by dilution of the DMSO stocks 1:500 in growth media. Two-fold serial dilutions were then prepared in medium containing 0.2% DMSO to maintain a constant concentration of vehicle throughout the concentration range of the compound. Each of these was added in an equal volume (25 µL) to four wells on each cell assay plate, along with the vehicle control. The highest concentration for serial dilutions of the positive control (sunitinib) was prepared exactly as the experimental compound 7e. Cells were incubated with the compounds for a further 72 h.
(§3) At the end of the treatment period, assay plates were allowed to cool to RT for 10 min prior to the addition of 25 µL per well Promega CellTiterGlo reagent, followed by additional 10 min incubation at RT. The resulting luminescence was quantitated using a Molecular Devices Spectramax Paradigm.
(§4) Percent growth inhibition was calculated as follows, where 100 represents the viability of vehicle treated control samples:
(§5) The potency of compounds was determined using the non-linear dose response algorithm (four-parameter logistic fit) with GraphPad Prism 5 software.

HT-29 = test: as above; format: cell-based, human; details: for inhibition at 30 µM: HT-29, read-out: Cell growth inhibitory activity, HT-29; for IC50: 72 h
Method: as §1, §2, §3, §4, §5

ZR-75 = test: as above; format: cell-based, human; details: for inhibition at 30 µM: ZR75, read-out: Cell growth inhibitory activity, ZR-75
Method: as §1, §2, §3, §4, §5

[1] = system: HT-29, ZR-75 and A-549 cell lines; test: Average anti-proliferative activity over the three cancer cell lines; format: cell-based, human; details: average of HT-29, ZR-75, A-549; for inhibition at 30 µM: read-out: Average Growth Inhibition %; for inhibition at 30 µM / Average Growth Inhibition %: 30 μM
Method: as §1
Therefore, they were subjected to quantitative inhibitory concentration 50% (IC50) determination for their cell growth inhibitory activity towards the A549, HT-29 and ZR-75 cancer cell lines.
as §2, §5

NCI cell lines = system: NCI cell lines; set-up: method as in PMID 17073710, PMID 16860559; details: against 46 out of 53 NCI cell lines; cited from earlier work
[2] = target: glycogen synthase kinase 3 beta (GSK-3β); details: read-out: IC50 GSK-3β; binding to the ATP pocket; cited from earlier work
[3] = system: cyclin-dependent kinases (CDKs); details: read-out: IC50 CDKs; binding to the ATP pocket; cited from earlier work
[4] = Homo sapiens, 30 μM, quadruplicate

Row | Compound | inhibition at 30 µM (A549; [4]) [%] | inhibition at 30 µM (HT-29; [4]) [%] | inhibition at 30 µM (ZR-75; [4]) [%] | inhibition at 30 µM ([1]; Homo sapiens) [%] | melting point [°C] | other results
1 | COc1ccc(C=NN=C2C(=O)Nc3ccccc32)cc1 [Compound 4a, 3-((4-Methoxybenzylidene)hydrazono)indolin-2-one] | 27.1 ± 20.3 | 19.5 ± 12.4 | 34.8 ± 23.7 | 27.2 | 277 to 279 | 
2 | COc1ccc(C=NN=C2C(=O)Nc3ccccc32)cc1O [Compound 4b, 3-((3-Hydroxy-4-methoxybenzylidene)hydrazono)indolin-2-one] | 66.3 ± 5.7 | 81.9 ± 3 | 59.3 ± 11.1 | 69.2 | 273 to 275 | 
3 | COc1cc(C=NN=C2C(=O)Nc3ccccc32)ccc1O [Compound 4c, 3-((4-Hydroxy-3-methoxybenzylidene)hydrazono)indolin-2-one] | 54.2 ± 5 | 74.9 ± 5.3 | 55.4 ± 23.4 | 61.5 |  | 
4 | COc1ccc(C=NN=C2C(=O)Nc3ccccc32)cc1OC [Compound 4d, 3-((3,4-Dimethoxybenzylidene)hydrazono)indolin-2-one] | 82.5 ± 6.9 | 81.7 ± 5.2 | 58.8 ± 4.3 | 74.3 | 276 to 278 | 
5 | COc1cc(C=NN=C2C(=O)Nc3ccccc32)cc(OC)c1OC [Compound 4e, 3-((3,4,5-Trimethoxybenzylidene)hydrazono)indolin-2-one] | 93.6 ± 3.6 | 81.9 ± 5.4 | 86.1 ± 3.8 | 87.2 | 240 to 241 | 
6 | COc1ccc(C=NN=C2C(=O)Nc3ccc(Cl)cc32)cc1 [Compound 4f, 5-Chloro-3-((4-methoxybenzylidene)hydrazono)indolin-2-one] | 8.4 ± 10 | 6.1 ± 8.6 | 10.9 ± 14 | 8.4 | 282 to 284 | 
7 | COc1ccc(C=NN=C2C(=O)Nc3ccc(Cl)cc32)cc1O [Compound 4g, 5-Chloro-3-((3-hydroxy-4-methoxybenzylidene)hydrazono)indolin-2-one] | 44.2 ± 16.5 | 33.5 ± 11.3 | 46 ± 6.4 | 41.2 | 278 to 280 | 
8 | COc1cc(C=NN=C2C(=O)Nc3ccc(Cl)cc32)ccc1O [Compound 4h, 5-Chloro-3-((4-hydroxy-3-methoxybenzylidene)hydrazono)indolin-2-one] | 37.3 ± 8.1 | 41.6 ± 10.4 | 30.9 ± 9.5 | 36.6 | 269 to 271 | 
9 | COc1ccc(C=NN=C2C(=O)Nc3ccc(Cl)cc32)cc1OC [Compound 4i, 5-Chloro-3-((3,4-dimethoxybenzylidene)hydrazono)indolin-2-one] | 4.9 ± 3.3 | -3.6 ± 9.7 | 33 ± 13 | 11.4 | 282 to 284 | 
10 | COc1cc(C=NN=C2C(=O)Nc3ccc(Cl)cc32)cc(OC)c1OC [Compound 4j, 5-Chloro-3-((3,4,5-trimethoxybenzylidene)hydrazono)indolin-2-one] | 1.7 ± 17.5 | 6.9 ± 4.2 | 18.1 ± 21.2 | 8.9 | 245 to 247 | 
11 | COc1ccc(C=NN=C2C(=O)Nc3ccc(Br)cc32)cc1 [Compound 4k, 5-Bromo-3-((4-methoxybenzylidene)hydrazono)indolin-2-one] | -6.9 ± 9.4 | -0.6 ± 7.2 | -5.3 ± 18.1 | -4.3 | 290 to 292 | Average Growth Inhibition % [1]: stimulated the growth
12 | COc1ccc(C=NN=C2C(=O)Nc3ccc(Br)cc32)cc1O [Compound 4l, 5-Bromo-3-((3-hydroxy-4-methoxybenzylidene)hydrazono)indolin-2-one] | 46.6 ± 9.5 | 45.9 ± 9.8 | 44.3 ± 18.4 | 45.6 | 278 to 280 | 
13 | COc1cc(C=NN=C2C(=O)Nc3ccc(Br)cc32)ccc1O [Compound 4m, 5-Bromo-3-((4-hydroxy-3-methoxybenzylidene)hydrazono)indolin-2-one] | 83.7 ± 10.3 | 42.1 ± 1.8 | 58.7 ± 16 | 61.5 | 285 to 287 | 
14 | COc1ccc(C=NN=C2C(=O)Nc3ccc(Br)cc32)cc1OC [Compound 4n, 5-Bromo-3-((3,4-dimethoxybenzylidene)hydrazono)indolin-2-one] | 0.1 ± 5.1 | -2 ± 10.2 | 12.5 ± 21.9 | 3.5 | 280 to 282 | 
15 | COc1cc(C=NN=C2C(=O)Nc3ccc(Br)cc32)cc(OC)c1OC [Compound 4o, 5-Bromo-3-((3,4,5-trimethoxybenzylidene)hydrazono)indolin-2-one] | -3.4 ± 6.6 | -1.1 ± 9 | 3.1 ± 8.2 | -0.5 | 261 to 263 | Average Growth Inhibition % [1]: stimulated the growth
16 | CN1C(=O)C(=NN=C2C(=O)Nc3ccc(F)cc32)c2ccccc21 [Compound 7a, 5-Fluoro-3-((1-methyl-2-oxoindolin-3-ylidene)hydrazono)indolin-2-one] | 91.6 ± 4.8 | 84.8 ± 3.6 | 78.6 ± 9.9 | 85 | 295 to 297 | 
17 | CN1C(=O)C(=NN=C2C(=O)Nc3ccc(Cl)cc32)c2ccccc21 [Compound 7b, 5-Chloro-3-((methyl-2-oxoindolin-3-ylidene)hydrazono)indolin-2-one] |  |  |  |  |  | Cell growth inhibitory activity, A-549 (A549; 30 μM, quadruplicate): 95.2 ± 2.8%; IC50 (A549; 72 h): 5.19 µM; Cell growth inhibitory activity, HT-29 (HT-29; 30 μM, quadruplicate): 95.5 ± 3.4%; IC50 (HT-29): 5.38 µM; Cell growth inhibitory activity, ZR-75 (ZR-75; 30 μM, quadruplicate): 95.5 ± 6.0%; IC50 (ZR-75; 72 h): 3.75 µM; Average Growth Inhibition % [1]: 95.4%; IC50 [1]: 4.77 µM
18 | O=C1Nc2ccccc2C1=NN=C1C(=O)N(Cc2ccccc2)c2ccccc21 [Compound 7c, 1-Benzyl-3-((oxoindolin-3-ylidene)hydrazono)indolin-2-one] | 86.6 ± 9.9 | 73.8 ± 4.4 | 92.1 ± 3.8 | 84.2 | 255 to 257 | 
19 | O=C1Nc2ccc(Cl)cc2C1=NN=C1C(=O)N(Cc2ccccc2)c2ccccc21 [Compound 7d, 1-Benzyl-3-((5-chloro-2-oxoindolin-3-ylidene)hydrazono)indolin-2-one] | 98.4 ± 0.6 | 97 ± 1.8 | 97.8 ± 1.8 | 97.7 | 258 to 260 | IC50 (A549; Homo sapiens, A549, 72 h): 4.13 µM; IC50 (HT-29): 3.62 µM; IC50 (HT-29; Homo sapiens, HT-29, 72 h): 3.82 µM; IC50 (ZR-75; Homo sapiens, ZR75, 72 h): 2.42 µM; IC50 ([1]; Homo sapiens): 3.39 µM
20 | Cc1cc(C)c(/C=C2\C(=O)Nc3ccccc32)[nH]1 [Semaxanib] |  |  |  |  |  | GI50 (NCI cell lines): < 0.01 µM
21 | O=C1Nc2ccccc2/C1=C1/Nc2ccccc2C1=O [indirubin, Indirubin] |  |  |  |  |  | IC50 [2]: […]; IC50 [3]: 75 µM
